Reference: publication PMC10447463, “Data-mining unveils structure–property–activity correlation of viral infectivity enhancing self-assembling peptides” (Nature Communications, 2023)
Like-named read-outs stand apart in the source and are kept apart here.

Assays:
[1] = Turbidity, derived count rate of scattered light; assay type: physicochemical; conditions: for Count Rate: derived count rate of scattered light (turbidity); for Log10 Count Rate: turbidity, derived count rate of scattered light, data of Figure 2D
[2] = assay type: physicochemical; parameters: key to Fibril / Fibril Formation / TEM 2cat / Fibril: 1 = fibrils present; 0 non-fibrillar structures; conditions: for Fibril / Fibril Formation: 1 mg/mL, uranyl acetate stain, qualitative
[3] = system: HIV-1 infection of TZM-bl cells; assay: HIV-1 infectivity enhancement assay, β-galactosidase luminescence; assay type: cell-based; conditions: for Rel-EFC / Log10 Infection Rel EFC: 1.3 µM peptide; for Rel-EFC: infection relative to EF-C (QCKIKQIINMWQ = 1); for Log10 Infection Rel EFC: log10 of infection relative to EF-C; for Log Infectivity: Log10 infection relative to EF-C, TZM-bl cells, asymmetric std dev errors; for Log10 Infection Rel EF-C: HIV-1 infection of TZM-bl cells; for Log10 of Rel to EFC (Feb2021): Log10 of infection relative to EF-C, all peptides of FigS16; for Log10 Inf. rel. to EF-C: log10 of HIV-1 infection of TZM-bl cells relative to EF-C (EF-C = 0); for Abs. Inf.: absolute infection signal, HIV-1 on TZM-bl cells, β-galactosidase luminescence
[4] = β-sheet content by ATR-FT-IR; assay type: physicochemical; conditions: Fig. S7 panel A; β-sheet content by ATR-FT-IR
In short: (§1)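 In the conversion assay, unconverted peptide passing a 3 kDa membrane at 4 °C was labelled with fluorescamine alongside unfiltered PNF, both in DMSO, and read at 365/470 nm after 20 min at room temperature. β-sheet content relied on ATR FT-IR of lyophilized fibril powder.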

[5] = Conversion rate (CR) assay with fluorescamine; assay type: physicochemical; parameters: key to CR: % = 100−100×filtrate/original fluorescence intensity; conditions: conversion rate, fluorescamine assay; for CR / %: Fig. S7 panel B
In short: as §1

[6] = Zeta-potential measurement; assay type: physicochemical
In short: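 Peptides from a 10 mg/mL DMSO stock were brought to 1 mg/mL in PBS (pH 7.4) and aged 1 d at RT. Just before reading, they were diluted into 1 mM aqueous KCl, and zeta potential was calculated from electrophoretic mobility with the Smoluchowski formula.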

[7] = TEM, 1 = fibrils present, 0 = non-fibrillar
[8] = TEM, 1 = fibrils present, 0 = non-fibrillar structures
[9] = category: fibrils present or non-fibrillar
[10] = Fig. S7 panel A (plotted against β-sheet content)
[11] = Fig. S7 panel B (plotted against CR), rounded to two decimals
[12] = Log10 of infection rate relative to EF-C, Figure 3A source data
[13] = infection rate relative to EF-C, log10, data of Figure 2D
[14] = infection rate relative to EF-C, log10, source data of Figure 2C
[15] = zeta potential of peptide assemblies
[16] = zeta-potential of peptide, source data of Figure 2C
[17] = zeta-potential of the peptide assemblies, mean, Figure 3A source data
[18] = FigS12 panel A, fibril category by TEM

| Substance | Count Rate [1] | Log10 Count Rate [1] | TEM 2cat ([2]; Fig S10 panel D) | Fibril ([2]; Fig S10 panel E) | Fibril / Fibril Formation ([2]; TEM) | Fibril [2, 7] | Fibril [2, 8] | Rel-EFC [3] | Log10 Infection Rel EFC [3] | Log Infectivity [3, 10] | Log Infectivity [3, 11] | Log10 Infection Rel EF-C [3, 12] | Log10 Infection Rel EF-C [3, 13] | Log10 Infection Rel EF-C [3, 14] | Log10 Inf. rel. to EF-C [3] | b -sheet / % [4] [%] | CR / % [5] [%] | CR [5] | Zeta-Potential / mV [6, 16] [mV] | Zeta-Potential / mV [6, 17] [mV] | also measured |
| --- | --- | --- | --- | --- | --- | --- | --- | --- | --- | --- | --- | --- | --- | --- | --- | --- | --- | --- | --- | --- | --- |
| KIKQIINM | 2481 | 3.395 | 1 | 1 | 1 | 1 | 1 | 0,45 | -0,35 | -0.3458 | -0.35 | -0.35 | -0.3458 | -0.3458 | -0.3458 | 44 | 43 | 43 | 18.1 | 16.3 | TEM 2cat [2, 9]: 1; Log10 of Rel to EFC (Feb2021) [3]: -0.35; Zeta-Pot. [6, 15]: 16.3 |
| HRRHFRHKITKKK | 9.5 | 0.9777 | 0 | 0 | 0 | 0 | 0 | 0,01 | -1,87 | -1.868 | -1.87 | -1.87 | -1.868 | -1.868 | -1.868 | 45.34 | 44.9 | 44.91 | -4.964 | -9.22 | TEM 2cat [2, 18]: 0; Fibril ([2]; FigS12 panel B, TEM): 0; Abs. Inf. [3]: 150; Zeta-Pot. [6]: -9.223 |
| QCKFKFQFNM | 3669.6 | 3.565 | 1 | 1 | 1 | 1 | 1 | 0,51 | -0,29 | -0.2906 | -0.29 | -0.29 | -0.2906 | -0.2906 | -0.2906 | 37.29 | 98.9 | 98.94 | 16.1 | 15.7 | TEM 2cat [2, 9]: 1; Log10 of Rel to EFC (Feb2021) [3]: -0.29; Abs. Inf. [3]: 16353.33333; Zeta-Pot. [6]: 15.7 |
| KAKAQA | 20.93 | 1.321 | 0 | 0 | 0 | 0 | 0 | 0,02 | -1,74 | -1.743 | -1.74 | -1.74 | -1.743 | -1.743 | -1.743 | 40.34 | 0.3 | 0.3138 | -10.04 | -14.08 | TEM 2cat [2, 18]: 0; Fibril ([2]; FigS12 panel B, TEM): 0; Abs. Infection at 0.26 µM ([3]; peptide 0.26 µM, mean of n = 3, Figure 4A): 100; Infect 1 0.26 µM ([3]; peptide 0.26 µM, replicate 1, absolute infection signal, Figure 4A): -23.33; Infect 2 0.26 µM ([3]; peptide 0.26 µM, replicate 2, absolute infection signal, Figure 4A): 166.67; Infect 3 0.26 µM ([3]; peptide 0.26 µM, replicate 3, absolute infection signal, Figure 4A): 156.67; Abs. Infection at 1.3 µM ([3]; peptide 1.3 µM, mean of n = 3, Figure 4A): 146.7; Infect 1 .3 µM ([3]; peptide 1.3 µM, replicate 1, absolute infection signal, Figure 4A): 126.67; Infect 2 1.3µM ([3]; peptide 1.3 µM, replicate 2, absolute infection signal, Figure 4A): 46.67; Infect 3 1.3 µM ([3]; peptide 1.3 µM, replicate 3, absolute infection signal, Figure 4A): 266.67; Zeta-Pot. [6, 15]: -14.08 |
